Assay results reported in ChEMBL document CHEMBL1201862, “PubChem BioAssay data set” (2004).
Activity calls are given as the source filed them.

Columns and labels:
[1] = molecular target: T1, Epstein-Barr nuclear antigen 1 (Epstein-Barr virus (strain B95-8) (HHV-4) (Human herpesvirus 4), UniProt P03211); test: inhibition of EBV nuclear antigen 1 DNA binding – biochemical, fluorescence polarization, 1536-well, dose response (AID 2381); design: species or system human gammaherpesvirus 4;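 note: fluorescence polarization of a Cy5 DNA probe bound by EBNA-1 protein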
T1 sequence (P03211 whole entry): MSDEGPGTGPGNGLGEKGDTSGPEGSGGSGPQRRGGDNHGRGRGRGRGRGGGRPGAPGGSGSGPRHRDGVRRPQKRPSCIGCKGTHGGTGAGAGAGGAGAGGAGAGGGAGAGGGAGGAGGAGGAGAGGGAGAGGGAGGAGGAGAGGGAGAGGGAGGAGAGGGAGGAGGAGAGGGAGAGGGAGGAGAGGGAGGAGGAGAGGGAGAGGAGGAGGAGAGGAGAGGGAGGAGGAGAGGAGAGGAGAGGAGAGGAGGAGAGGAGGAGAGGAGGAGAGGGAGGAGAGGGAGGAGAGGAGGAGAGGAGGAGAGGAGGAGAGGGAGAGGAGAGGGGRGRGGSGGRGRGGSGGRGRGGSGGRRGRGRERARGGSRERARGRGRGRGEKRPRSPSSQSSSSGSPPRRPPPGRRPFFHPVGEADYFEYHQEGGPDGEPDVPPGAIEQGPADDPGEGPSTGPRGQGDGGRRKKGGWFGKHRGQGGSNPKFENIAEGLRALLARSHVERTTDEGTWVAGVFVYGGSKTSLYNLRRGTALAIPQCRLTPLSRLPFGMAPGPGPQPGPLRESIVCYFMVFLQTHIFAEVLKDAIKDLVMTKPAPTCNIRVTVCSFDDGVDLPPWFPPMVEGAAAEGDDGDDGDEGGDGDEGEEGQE

[2] = molecular target: T2, Lytic switch protein BZLF1 (Epstein-Barr virus (strain B95-8) (HHV-4) (Human herpesvirus 4), UniProt P03206); test: inhibition of BZLF1 ZTA DNA binding – biochemical, fluorescence polarization, Epstein-Barr virus, 1536-well, counter-screen for EBNA-1 inhibitor project, dose response (AID 2377); design: species or system human gammaherpesvirus 4;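 note: fluorescence polarization of Cy5-labelled ZRE DNA probe bound by purified Zta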
T2 sequence (P03206 whole entry): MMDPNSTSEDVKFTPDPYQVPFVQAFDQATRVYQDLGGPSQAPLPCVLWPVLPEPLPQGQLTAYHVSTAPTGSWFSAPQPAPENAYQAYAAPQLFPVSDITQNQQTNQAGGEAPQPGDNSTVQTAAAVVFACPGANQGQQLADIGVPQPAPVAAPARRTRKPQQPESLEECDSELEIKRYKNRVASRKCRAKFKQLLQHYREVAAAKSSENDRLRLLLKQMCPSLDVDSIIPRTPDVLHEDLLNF

cells [3] = format: functional, cell-based
cells [4] = format: functional, cell-based; remark: listed apart in the source
Leucine aminopeptidase = molecular target: T3, Leucine aminopeptidase (Plasmodium falciparum 3D7, UniProt Q8IL11); test: P. falciparum M17LAP inhibitors, primary screen, biochemical, fluorogenic H-Leu-NHMec substrate, 1536-well (AID 1619); format: functional
T3 sequence (Q8IL11 whole entry): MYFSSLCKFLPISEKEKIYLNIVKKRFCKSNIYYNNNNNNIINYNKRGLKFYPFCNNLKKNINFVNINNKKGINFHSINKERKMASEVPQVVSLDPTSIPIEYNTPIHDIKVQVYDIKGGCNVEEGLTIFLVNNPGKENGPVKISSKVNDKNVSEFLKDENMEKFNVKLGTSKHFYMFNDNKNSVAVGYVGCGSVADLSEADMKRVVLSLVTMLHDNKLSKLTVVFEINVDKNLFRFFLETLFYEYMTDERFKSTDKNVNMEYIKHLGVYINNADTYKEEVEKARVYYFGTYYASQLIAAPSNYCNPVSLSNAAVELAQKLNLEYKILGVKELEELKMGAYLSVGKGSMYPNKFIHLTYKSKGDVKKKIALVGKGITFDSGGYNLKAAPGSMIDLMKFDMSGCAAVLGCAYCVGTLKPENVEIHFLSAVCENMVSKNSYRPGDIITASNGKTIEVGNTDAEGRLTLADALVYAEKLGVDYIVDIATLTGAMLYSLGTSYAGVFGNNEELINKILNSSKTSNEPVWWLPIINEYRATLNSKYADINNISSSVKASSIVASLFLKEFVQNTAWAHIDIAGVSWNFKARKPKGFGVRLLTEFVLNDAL

[5] = molecular target: T4, RNA-binding protein pos-1 (Caenorhabditis elegans, UniProt G5EF15); test: disruptors of C. elegans POS-1 RNA interaction – biochemical, fluorescence polarization, dose response (AID 1964);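 note: purified POS-1 fused to maltose binding protein made in E. coli; potency of compounds blocking POS-1 binding to fluorescent RNA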
T4 sequence (G5EF15 whole entry): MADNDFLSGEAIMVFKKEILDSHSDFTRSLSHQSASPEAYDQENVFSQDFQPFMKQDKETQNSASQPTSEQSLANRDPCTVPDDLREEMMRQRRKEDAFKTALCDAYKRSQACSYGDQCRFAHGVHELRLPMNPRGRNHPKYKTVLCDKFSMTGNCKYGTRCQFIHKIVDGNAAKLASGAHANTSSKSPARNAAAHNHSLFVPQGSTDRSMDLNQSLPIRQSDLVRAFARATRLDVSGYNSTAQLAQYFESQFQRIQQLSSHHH

[6] = molecular target: T5, Zinc finger protein mex-5 (Caenorhabditis elegans, UniProt Q9XUB2); test: potency of MEX-5 RNA-binding blockers – biochemical, C. elegans, fluorescence polarization, dose response (AID 1960)
T5 sequence (Q9XUB2 whole entry): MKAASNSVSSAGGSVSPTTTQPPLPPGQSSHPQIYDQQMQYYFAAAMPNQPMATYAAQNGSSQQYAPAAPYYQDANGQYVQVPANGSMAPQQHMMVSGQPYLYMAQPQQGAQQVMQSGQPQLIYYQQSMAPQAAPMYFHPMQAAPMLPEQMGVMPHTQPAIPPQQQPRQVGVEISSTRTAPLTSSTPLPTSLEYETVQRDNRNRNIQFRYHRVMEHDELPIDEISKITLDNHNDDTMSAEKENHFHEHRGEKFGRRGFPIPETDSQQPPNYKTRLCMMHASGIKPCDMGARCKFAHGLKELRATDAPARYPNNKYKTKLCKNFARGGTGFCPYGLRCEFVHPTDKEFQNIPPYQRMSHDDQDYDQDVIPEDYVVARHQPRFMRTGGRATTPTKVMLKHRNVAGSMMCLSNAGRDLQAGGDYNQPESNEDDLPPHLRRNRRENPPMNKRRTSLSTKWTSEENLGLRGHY

Ion channel NompC = Ion channel NompC (Danio rerio, UniProt Q7T1G6); test: Fluorescence counterscreen assay for TRPML3 agonists: dose response cell-based high-throughput screening assay to identify agonists of the transient receptor potential channel N1 (TRPN1). [Related pubchem assays: 1526, 1424, 1448 ]; format: functional
Ion channel NompC, sequence (Q7T1G6 whole entry): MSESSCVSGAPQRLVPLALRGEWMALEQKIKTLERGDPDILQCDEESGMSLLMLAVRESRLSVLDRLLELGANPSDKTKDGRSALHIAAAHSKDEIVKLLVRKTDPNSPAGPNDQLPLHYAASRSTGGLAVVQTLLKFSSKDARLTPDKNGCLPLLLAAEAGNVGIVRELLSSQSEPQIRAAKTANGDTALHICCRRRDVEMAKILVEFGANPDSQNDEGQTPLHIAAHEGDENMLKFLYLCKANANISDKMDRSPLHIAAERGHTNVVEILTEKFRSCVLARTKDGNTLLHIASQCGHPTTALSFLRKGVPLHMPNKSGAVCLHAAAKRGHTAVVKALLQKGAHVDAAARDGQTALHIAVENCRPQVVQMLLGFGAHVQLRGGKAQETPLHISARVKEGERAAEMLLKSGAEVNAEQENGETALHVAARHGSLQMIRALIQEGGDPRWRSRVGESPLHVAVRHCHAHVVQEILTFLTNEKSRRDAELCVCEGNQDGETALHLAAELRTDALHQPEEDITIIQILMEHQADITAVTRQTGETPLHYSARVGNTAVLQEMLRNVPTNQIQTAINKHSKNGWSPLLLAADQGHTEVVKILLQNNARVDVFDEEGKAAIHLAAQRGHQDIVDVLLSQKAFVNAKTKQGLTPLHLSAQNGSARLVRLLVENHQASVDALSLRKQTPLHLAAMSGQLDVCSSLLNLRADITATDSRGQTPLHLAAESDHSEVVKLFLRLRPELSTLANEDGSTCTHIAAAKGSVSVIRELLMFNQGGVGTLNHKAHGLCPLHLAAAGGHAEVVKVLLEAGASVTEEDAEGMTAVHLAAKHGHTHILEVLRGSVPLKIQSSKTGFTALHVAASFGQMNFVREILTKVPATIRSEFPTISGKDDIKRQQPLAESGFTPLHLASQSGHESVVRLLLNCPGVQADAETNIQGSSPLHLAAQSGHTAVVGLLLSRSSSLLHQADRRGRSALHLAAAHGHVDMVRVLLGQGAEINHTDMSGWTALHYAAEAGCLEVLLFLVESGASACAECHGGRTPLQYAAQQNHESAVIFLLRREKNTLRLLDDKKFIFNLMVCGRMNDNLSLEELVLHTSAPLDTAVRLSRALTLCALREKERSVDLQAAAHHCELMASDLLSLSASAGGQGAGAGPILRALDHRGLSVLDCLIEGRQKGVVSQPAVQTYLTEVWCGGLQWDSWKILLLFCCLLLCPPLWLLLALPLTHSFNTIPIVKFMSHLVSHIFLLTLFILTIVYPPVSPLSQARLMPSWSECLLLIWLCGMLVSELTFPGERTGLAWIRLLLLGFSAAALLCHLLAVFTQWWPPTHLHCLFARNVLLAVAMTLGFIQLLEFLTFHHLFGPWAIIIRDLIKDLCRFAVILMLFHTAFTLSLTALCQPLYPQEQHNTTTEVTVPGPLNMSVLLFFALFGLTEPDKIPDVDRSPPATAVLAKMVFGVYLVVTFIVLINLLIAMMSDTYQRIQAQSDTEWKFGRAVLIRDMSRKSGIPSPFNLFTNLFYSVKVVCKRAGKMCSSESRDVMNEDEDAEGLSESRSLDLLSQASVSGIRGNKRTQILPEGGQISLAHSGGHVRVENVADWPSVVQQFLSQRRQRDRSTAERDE

Mucolipin-3 = molecular target: T6, Mucolipin-3 (Homo sapiens, UniProt Q8TDD5); test: Dose response cell-based high-throughput screening assay for agonists of the transient receptor potential channel ML3 (TRPML3). [Related pubchem assays: 1526, 1424, 1448 ]; format: functional
T6 sequence (Q8TDD5 whole entry): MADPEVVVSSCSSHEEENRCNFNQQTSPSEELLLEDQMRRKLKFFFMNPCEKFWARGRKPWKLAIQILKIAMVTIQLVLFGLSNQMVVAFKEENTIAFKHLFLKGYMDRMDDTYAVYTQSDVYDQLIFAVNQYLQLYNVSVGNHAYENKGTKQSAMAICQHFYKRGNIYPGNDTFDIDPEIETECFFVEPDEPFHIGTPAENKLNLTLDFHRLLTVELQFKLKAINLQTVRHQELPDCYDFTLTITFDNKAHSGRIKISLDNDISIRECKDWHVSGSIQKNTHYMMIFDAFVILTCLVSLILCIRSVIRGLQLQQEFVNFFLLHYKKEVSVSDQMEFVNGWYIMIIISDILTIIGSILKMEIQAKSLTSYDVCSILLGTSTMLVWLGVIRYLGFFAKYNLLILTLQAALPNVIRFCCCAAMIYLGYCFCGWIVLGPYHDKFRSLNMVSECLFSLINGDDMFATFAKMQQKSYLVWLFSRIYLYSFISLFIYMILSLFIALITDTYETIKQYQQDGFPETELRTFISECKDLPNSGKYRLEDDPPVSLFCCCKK

[7] = viability loss in human Jurkat cells – cell-based, luminescence, cytotoxicity control for P. falciparum gametocyte viability project, dose response (AID 1117277); format: functional;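 note: potency reflects loss of cellular ATP meaning fewer viable cells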
[8] = viability inhibitors of stage V gametocytes – luminescence, dose response (AID 1117278); format: functional, cell-based;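 note: gametocytes exposed to compound for 24 hours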
[9] = molecular target: T7, Mannose-6-phosphate isomerase (Homo sapiens, UniProt P34949); test: MPI enzyme activity inhibition – biochemical, fluorescence intensity, coupled assay, primary screen (AID 1209)
T7 sequence (P34949 whole entry): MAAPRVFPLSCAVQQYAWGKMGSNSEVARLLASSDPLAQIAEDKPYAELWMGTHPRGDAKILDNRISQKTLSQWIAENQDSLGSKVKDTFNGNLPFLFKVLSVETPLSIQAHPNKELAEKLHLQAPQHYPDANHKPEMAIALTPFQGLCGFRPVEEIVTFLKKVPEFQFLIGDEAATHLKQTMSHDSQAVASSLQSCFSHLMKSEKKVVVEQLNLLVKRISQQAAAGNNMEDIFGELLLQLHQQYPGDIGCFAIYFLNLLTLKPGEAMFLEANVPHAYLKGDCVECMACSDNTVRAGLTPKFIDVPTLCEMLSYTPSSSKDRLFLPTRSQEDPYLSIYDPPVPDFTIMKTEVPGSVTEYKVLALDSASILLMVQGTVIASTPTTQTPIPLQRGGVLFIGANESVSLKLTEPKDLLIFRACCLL

[10] = molecular target: DNA dC->dU-editing enzyme APOBEC-3G (Homo sapiens, UniProt Q9HC16); test: Dose Response confirmation of small molecule APOBEC3G DNA Deaminase Inhibitors via a fluorescence-based single-stranded DNA deaminase assay. [Related pubchem assays (depositor defined):AID493012, AID493028]; format: functional
DNA dC->dU-editing enzyme APOBEC-3G, sequence (Q9HC16 whole entry): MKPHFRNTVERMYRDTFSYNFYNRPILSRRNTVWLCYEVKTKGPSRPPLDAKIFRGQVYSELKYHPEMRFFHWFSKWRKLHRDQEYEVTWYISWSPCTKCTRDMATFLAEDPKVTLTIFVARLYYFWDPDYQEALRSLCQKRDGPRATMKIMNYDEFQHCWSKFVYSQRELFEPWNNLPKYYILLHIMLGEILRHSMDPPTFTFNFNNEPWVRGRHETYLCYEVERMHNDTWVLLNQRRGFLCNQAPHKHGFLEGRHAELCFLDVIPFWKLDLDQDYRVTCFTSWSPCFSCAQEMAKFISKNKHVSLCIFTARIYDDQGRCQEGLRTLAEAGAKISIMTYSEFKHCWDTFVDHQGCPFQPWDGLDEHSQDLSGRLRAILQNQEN

[11] = toxicity to human HepG2 hepatoma cells – cell-based, plate reader, dry powder samples, cytotoxicity control, dose response (AID 1159569); format: functional;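 note: inhibitor potency with signal falling toward the positive control level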
[12] = growth inhibition of PfATP4-mutant resistant parasites – NITD609-resistant line, SYBR Green, dry powder, dose response (AID 1159571); format: functional, cell-based;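 note: parasites synchronized at ring stage by sorbitol before testing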
[13] = P. falciparum Dd2 growth inhibitors, dose response, SYBR Green, cherry-picked samples (AID 1159567); format: functional, cell-based
[14] = growth inhibition of yeast DHODH-expressing 3D7 parasites – SYBR Green, dry powder samples, dose response (AID 1159570); format: functional, cell-based;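 note: parasite growth measured after 72 hours of compound exposure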
[15] = toxicity to human hepatoma HepG2 cells – cell-based, cherry-picked samples, cytotoxicity control, dose response (AID 1159577); format: functional
[16] = Dd2 malaria parasite growth inhibition potency – SYBR Green, dry powder samples, dose response (AID 1159566); format: functional, cell-based;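 note: potency for growth inhibition with lower SYBR green DNA signal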

Compound: Cc1ccc(NC(=O)CCn2c(=S)oc3ccccc32)cc1
- IC50 [1]: 14.2 µM (not active)
- IC50 [2]: > 111 µM (not active)

Compound: c1ccc(CSc2nnc(-c3ccco3)o2)cc1
- EC50 (cells [3]): > 350 µM (not active)
- EC50 (cells [4]): > 350 µM (not active)

Compound: Nc1cc(N)nc(SCC(=O)Nc2ccc3c(c2)OCCCO3)n1
- IC50 (Leucine aminopeptidase): 14.4 µM (active)

Compound: CN(C)c1ccc(/C=C(\C#N)C(=O)NCc2ccco2)cc1
- IC50 [1]: 15 µM (not active)
- EC50 [5]: > 300 µM (not active)
- IC50 [2]: 32 µM (not active)
- EC50 [6]: 23.7 µM (active)

Compound: NC(=O)c1cc(-c2ccccc2)sc1NC(=O)Cc1ccc(S(=O)(=O)N2CCOCC2)s1
- IC50 [1]: > 5.47 µM (active)
- IC50 [2]: > 111 µM (not active)

Compound: CC(C)[C@H](NS(=O)(=O)c1ccc2c(c1)OCCO2)C(=O)OCC(=O)Nc1cccc(Cl)c1Cl
- EC50 (Ion channel NompC): > 29.9 µM (not active)
- EC50 (Mucolipin-3): 3.69 µM (active)

Compound: Cc1cccc(-c2noc(CN(C(C)C)S(=O)(=O)c3ccc(F)cc3)n2)c1
- EC50 (Ion channel NompC): > 29.9 µM (not active)
- EC50 (Mucolipin-3): 1.77 µM (active)

Compound: COCC(=O)Nc1ccc(Br)cc1C
- IC50 [7]: > 83.3 µM (inactive)
- IC50 [8]: > 109 µM (inactive)

Compound: COc1ccc(Cc2nnc(S)n2N)cc1OC
- IC50 [9]: 31.9 µM (active)
- IC50 [10]: 17.8 µM (active)

Compound: COc1ccccc1CN1C[C@@H]2N[C@H](C1)[C@@H]2c1ccc(-c2cccnc2)cc1
- AC50 [11]: 29.6 µM (active)
- AC50 [12]: 1.78 µM (active)
- AC50 [13]: 2.1 µM (active)
- AC50 [14]: 3.2 µM (active)
- AC50 [15]: 28.5 µM (active)
- AC50 [16]: 1.35 µM (active)
